# In patent publication US8653238B2, “Compositions and methods for transport of molecules with enhanced release properties across biological barriers” (The Board of Trustees of the Leland Stanford Junior …, priority 2006, dated 2014):
# “And” between values parts separate entries of the source, which are not always exact repeats. Equal entries are not always repeated. Non-standard residues stand in square brackets, D forms with d. Residues, ends and D or L forms follow the SMILES beside them. *: point of attachment. Paclitaxel(2'-OCO(CH2)3S) = CC(=O)O[C@H]1C(=O)[C@@]2(C)[C@H]([C@H](OC(=O)c3ccccc3)[C@]3(O)C[C@H](OC(=O)[C@H](OC(=O)CCCS*)[C@@H](NC(=O)c4ccccc4)c4ccccc4)C(C)=C1C3(C)C)[C@]1(OC(C)=O)CO[C@@H]1C[C@@H]2O; X1 = O=C(OCCCS*)Oc1ccc2nc(C3=N[C@@H](C(=O)O)CS3)sc2c1
# Columns and labels:
# OVCA429TP = assay: cells
# Method: (§1) FIG. 12 depicts an assay for GI50 (nM) of 429 Ovarian Cancer Lines, 20 min pulse with indicated compounds. The cells were pulsed for 20 min, washed (×2) and incubated for 72 hr in fresh media. For each compound, three bars are depicted, for 429 cells, 429 T cells, and 429 TP cells (from left to right).
# (§2) The cells were pulsed with conjugates administered in PBS (pH=7.4) and Taxol (administered in DMSO) for 20 min. Then the solution was removed, the cells were washed twice and incubated in fresh media for 72 hr. The presence of live cells were measured based on the standard MTS assay.
# OVCA429T = assay: cells
# Method: as §1, §2
# OVCA429 = assay: cells
# Method: as §1, §2
# physchem = conditions: buffer, pH 7.4
# Method: The stabilities of the conjugates were assayed by measuring their decomposition when incubated in HEPES buffered saline (HBS, pH 7.4) at 37° C. using analytical HPLC. […] At appropriate time points 20 μl of the solutions were removed and analyzed by reverse phase HPLC. The percent decomposition was calculated from the integrated peak areas of the conjugate, the internal standard, and the various decomposition products.
# [1] = system: PC3M-luc prostate cancer cell line stably transfected with luciferase; assay: Cellular assay for luciferin release from conjugates (Example 6); format: cell-based
# Method: The PC3M-luc prostate tumor cell line (Jenkins et al., Clin. Exp. Metastasis 20:733 (2003)), was plated at 60,000 cells per well in 96 well, flat bottomed plates twelve hours prior to the assay. […] The cells were washed to remove extracellular luciferin or conjugate, resuspended with the appropriate buffer, and the resultant luminescence measured using a charged coupled device camera and Living Image software (IVIS200, Xenogen Corp., Alameda, Calif.) (see Cao et al., Proc. Natl. Acad. Sci. U.S.A. 101:221 (2004)).
# [2] = system: transgenic (FVB-luc+) mice; assay: Bioluminescence after intradermal injection into luciferase transgenic mice; format: in vivo
# FVB-luc+ mice skin = assay: Bioluminescence after topical application to skin of luciferase transgenic mice (Example 7); format: in vivo
# Source text: For imaging assays to assess skin transport, hair was removed from the animals by clipping with a large hair clipper on the right flank. Subsequently, Nair® (NAIR is a registered trademark of Church & Dwight Co., Inc., Princeton N.J., USA for a depilatory cream) was applied for 90 seconds, wiped off, and the animals were washed well with wet paper towels and dried. Five days were allowed for stratum corneum regrowth before the mice were used for imaging.
# Formulations for topical application of conjugates were prepared as follows. […] Luminescence was observed over approximately 60 minutes.
# In vivo bioluminescence imaging was carried out as follows. Animals were imaged in a dark chamber using a cooled CCD camera (IVIS100 Xenongen Corp.) as previously described 45 and the data were analyzed using LivingImage software (Xenogen Corp.). Data are expressed as photons/ster radian/sec for each region of interest such that the data are not dependent on camera settings, chamber geometry or integration time.
# The most reproducible method to evaluate the relative performance of transporters and linkers was to apply a single drop of a solution of each conjugate to the flank of anesthetized FVB-luc+ mice. The drop was allowed to remain in contact with the skin for the duration of the assay during which luminescence from the animal was monitored. […]
# [3] = 429TP cells (Taxol resistant, unknown mechanism), 20 min pulse, 72 hr
# [4] = 429T cells (Taxol resistant, PGP overexpression), 20 min pulse, 72 hr
# [5] = 429 cells, 20 min pulse, washed ×2, 72 hr in fresh media, conjugates in PBS pH 7.4, taxol in DMSO
smiles,measurement,setting,value
"CC(=O)O[C@H]1C(=O)[C@@]2(C)[C@H]([C@H](OC(=O)c3ccccc3)[C@]3(O)C[C@H](OC(=O)[C@H](O)[C@@H](NC(=O)c4ccccc4)c4ccccc4)C(C)=C1C3(C)C)[C@]1(OC(C)=O)CO[C@@H]1C[C@@H]2O [taxol, paclitaxel, reference compound]",GI50,OVCA429TP; Homo sapiens,8480 nM
same,GI50,OVCA429T; Homo sapiens,15800 nM
same,GI50,"OVCA429; Homo sapiens, OVCA429, pH 7.4",147 nM
CC(=O)N[C@H](CSSCCOC(=O)Oc1ccc2nc(C3=N[C@@H](C(=O)O)CS3)sc2c1)C(=O)N[C@H](CCCNC(=N)N)C(=O)N[C@H](CCCNC(=N)N)C(=O)N[C@H](CCCNC(=N)N)C(=O)N[C@H](CCCNC(=N)N)C(=O)N[C@H](CCCNC(=N)N)C(=O)N[C@H](CCCNC(=N)N)C(=O)N[C@H](CCCNC(=N)N)C(=O)N[C@H](CCCNC(=N)N)C(N)=O [5a],half-life at 0.8 mg/ml,physchem,3 h
"CC(=O)N[C@H](CSSCCCC(=O)O[C@@H](C(=O)O[C@H]1C[C@@]2(O)[C@@H](OC(=O)c3ccccc3)[C@@H]3[C@]4(OC(C)=O)CO[C@@H]4C[C@H](O)[C@@]3(C)C(=O)[C@H](OC(C)=O)C(=C1C)C2(C)C)[C@@H](NC(=O)c1ccccc1)c1ccccc1)C(=O)N[C@H](CCCNC(=N)N)C(=O)N[C@H](CCCNC(=N)N)C(=O)N[C@H](CCCNC(=N)N)C(=O)N[C@H](CCCNC(=N)N)C(=O)N[C@H](CCCNC(=N)N)C(=O)N[C@H](CCCNC(=N)N)C(=O)N[C@H](CCCNC(=N)N)C(=O)N[C@H](CCCNC(=N)N)C(N)=O [Compound 62, Taxol C2′ Octaarginine Conjugate 62] (Ac-[dC](Paclitaxel(2'-OCO(CH2)3S))[dR][dR][dR][dR][dR][dR][dR][dR]-NH2)",GI50,OVCA429TP; [3],101 nM
same,GI50,OVCA429T; [4],420 nM
same,GI50,OVCA429; [5],12 nM
CC(=O)N[C@H](CSSCCCOC(=O)Oc1ccc2nc(C3=N[C@@H](C(=O)O)CS3)sc2c1)C(=O)N[C@H](CCCNC(=N)N)C(=O)N[C@H](CCCNC(=N)N)C(=O)N[C@H](CCCNC(=N)N)C(=O)N[C@H](CCCNC(=N)N)C(=O)N[C@H](CCCNC(=N)N)C(=O)N[C@H](CCCNC(=N)N)C(=O)N[C@H](CCCNC(=N)N)C(=O)N[C@H](CCCNC(=N)N)C(N)=O [5b] (Ac-[dC](X1)[dR][dR][dR][dR][dR][dR][dR][dR]-NH2),time for luminescent signal to reach background,"[1]; 1 minute pulse, HBS pH 7.4",approximately 1000 seconds
same,time over which signal increases after injection,[2]; intradermal injection,20 min
same,area under the curve of bioluminescence,"[2]; intradermal injection of 100 uL of 200 nM in HBS pH 7.4, two different animals",2.54 ×10^10 photons and 2.01 ×10^10 photons
same,theoretical amount of luciferin in the injected sample accounted for,"[2]; intradermal injection, photons emitted in 60 minutes × 400 molecules per photon",Approximately 80%
same,amount of luciferin released in one hour,FVB-luc+ mice skin; 15 μL of 5 mM in 75% PEG 400/25% 200 mM NaOAc pH 6.0,3.62e-12 mol
same,cumulative intradermal concentration of luciferin over one hour,"FVB-luc+ mice skin; 15 μL of 5 mM in 75% PEG 400/25% 200 mM NaOAc pH 6.0, skin thickness 0.69 mm",47 nM
same,half-life at 0.8 mg/ml,physchem,11 h
"O=C(O)[C@H]1CSC(c2nc3ccc(O)cc3s2)=N1 [luciferin, reference compound]",change of luminescence in K+HBS,"[1]; K+HBS versus HBS, 25 μM luciferin",increased slightly
same,area under the curve relative to 200 nM dose,"[2]; mouse, in vivo",10.24%
same,area under the curve of bioluminescence,"[2]; mouse, in vivo, pH 7.4",3.02×10^10 photons and 3.11×10^9 photons
"CC(=O)N[C@H](CSSCCCC(=O)O[C@H]1C[C@H]2OC[C@@]2(OC(C)=O)[C@H]2[C@H](OC(=O)c3ccccc3)[C@]3(O)C[C@H](OC(=O)[C@H](O)[C@@H](NC(=O)c4ccccc4)c4ccccc4)C(C)=C([C@@H](OC(C)=O)C(=O)[C@]12C)C3(C)C)C(=O)N[C@H](CCCNC(=N)N)C(=O)N[C@H](CCCNC(=N)N)C(=O)N[C@H](CCCNC(=N)N)C(=O)N[C@H](CCCNC(=N)N)C(=O)N[C@H](CCCNC(=N)N)C(=O)N[C@H](CCCNC(=N)N)C(=O)N[C@H](CCCNC(=N)N)C(=O)N[C@H](CCCNC(=N)N)C(N)=O [Compound 67, Taxol C7 Octaarginine Conjugate 67]",GI50,OVCA429TP; [3],93 nM
same,GI50,OVCA429T; [4],225 nM
same,GI50,OVCA429; [5],125 nM
